Test results reported in BigSolDB 2.1.

CC(=O)C1=CC[C@H]2[C@@H]3CCC4=CC(=O)C=C[C@]4(C)[C@H]3[C@@H](O)C[C@]12C
solubility (mole fraction)
Conditions	in acetone	in ethanol
298.15 K	0.00192	0.00213
303.15 K	0.00215	0.00252
308.15 K	0.00243	0.00291
313.15 K	0.00275	0.00335
318.15 K	0.00303	0.00395
323.15 K	0.00351	0.00461
328.15 K	0.0038	0.00541
333.15 K	–	0.00625
338.15 K	–	0.00722
343.15 K	–	0.00844
348.15 K	–	0.0097
